One assay deals with S. aureus ATCC 13709. The experiment in a line: MIC, S. aureus ATCC 13709 (Alamar Blue broth microdilution). It is filed as cell-based. The settings on record: Alamar Blue read after overnight incubation at 35° C.; for MIC: Staphylococcus aureus, ATCC13709, S. aureus; for MIC Sa: S. aureus. (In general: Resazurin is reduced to fluorescent resorufin, in cell work by metabolically active cells.)

A further assay deals with E. coli ATCC 25922. Description: MIC, E. coli ATCC 25922. The assay is classed as cell-based. The settings on record: Alamar Blue read after overnight incubation at 35° C.; for MIC: Escherichia coli, ATCC25922, E. coli; for MIC Ec: E. coli.

Molecules are shown by their SMILES. In brackets after ≈: the same amount, converted by molar mass.

As usually defined, the MIC is the smallest concentration in the dilution series that meets the test's criterion for growth inhibition. Read a low MIC as inhibition by little substance. `CNc1cccc2c1[nH]c1nc(Oc3cncnc3)nc(N3CC(N)C(O)C3)c12` (centres unmarked) [3.8]: the results for the MIC against S. aureus ATCC 13709 and against E. coli ATCC 25922 were 16 µg/mL (≈ 40.8 µM) and > 64 µg/mL, respectively.

Regarding `CNc1cc(F)cc2c1[nH]c1nc(Oc3cnc(C)nc3)nc(N3CCCC(C)(N)C3)c12` (centres unmarked) [4.088], the “MIC Sa” value against S. aureus ATCC 13709 is ≤0.5 µg/mL. Besides, the “MIC Ec” value against E. coli ATCC 25922 amounted to 1 µg/mL (≈ 2.29 µM).

For the compound `CNc1cccc2c1[nH]c1nc(Oc3cncc(C#N)c3)nc(N3CC(N)C4(CC4)C3)c12` (centres unmarked) [3.43], the values for the MIC in the assay with S. aureus ATCC 13709 and in the assay on E. coli ATCC 25922 were ≤ 0.5 µg/mL and 1 µg/mL (≈ 2.34 µM), respectively.

In the case of `CNc1cc(F)cc2c1[nH]c1nc(Oc3cnc(C)nc3)nc(N3CC4C(C3)C4NC(=O)CN)c12` (centres unmarked) [4.078], the “MIC Sa” value in the assay with S. aureus ATCC 13709 is ≤0.5 µg/mL. Also, the “MIC Ec” value in the assay with E. coli ATCC 25922 amounted to 8 µg/mL (≈ 16.8 µM).

Take `CNc1cc(F)cc2c1[nH]c1nc(Oc3cnc(C)nc3)nc(-c3ccc(Cl)cc3N)c12` [4.161]: in the assay with S. aureus ATCC 13709, the “MIC Sa” value is ≤0.5 µg/mL. Also, in the assay with E. coli ATCC 25922, the “MIC Ec” value was ≤0.5 µg/mL.

As for `CNc1cc(F)cc2c1[nH]c1nc(Oc3cnc(C)nc3)nc(N3CC(NCCO)C4(CC4)C3)c12` (centres unmarked) [4.089], in the assay on S. aureus ATCC 13709, the “MIC Sa” value is ≤0.5 µg/mL. In addition, the “MIC Ec” value against E. coli ATCC 25922 was ≤0.5 µg/mL.

`CNc1cc(F)cc2c1[nH]c1nc(Oc3cnc(C)nc3)nc(N3CC4CCC(N)C3C4)c12` (centres unmarked) [4.123]: in the assay on S. aureus ATCC 13709, the “MIC Sa” value came out at 16 µg/mL (≈ 35.7 µM). Moreover, the “MIC Ec” value with E. coli ATCC 25922 was >16 µg/mL.

As for `CNc1cc(F)cc2c1[nH]c1nc(Oc3cnc4c(c3)C(=O)N(C)C4)nc(N3CC4C[C@@H](N)C4C3)c12` (some centres unmarked) [4.359], the MIC in the assay on S. aureus ATCC 13709 and in the assay on E. coli ATCC 25922 was ≤ 0.5 µg/mL in each case.

On to `CNc1cc(F)cc2c1[nH]c1nc(Oc3cnc(SC)nc3)nc(N3C[C@H](N)C4(CC4)C3)c12` [4.194], for which the MIC with S. aureus ATCC 13709 and in the assay on E. coli ATCC 25922 was ≤ 0.5 µg/mL in each case.

Regarding `CNc1cc(F)cc2c1[nH]c1nc(Oc3ccc4c(c3)ncn4C)nc(N3CC4C[C@@H](N)C4C3)c12` (some centres unmarked) [4.358], the values for the MIC in the assay on S. aureus ATCC 13709 and with E. coli ATCC 25922 were ≤ 0.5 µg/mL and 4 µg/mL (≈ 8.47 µM), respectively.

Turning to `CNc1cc(F)cc2c1[nH]c1nc(Oc3cncc(Cl)c3)nc(N3CC(N)C3)c12` [4.277], the MIC with S. aureus ATCC 13709 and against E. coli ATCC 25922 was ≤ 0.5 µg/mL throughout.

`CNc1cc(F)cc2c1[nH]c1nc(Oc3cnc(CC(=O)NOC)nc3)nc(N3CC(N)C4(CC4)C3)c12` (centres unmarked) [4.371]: the “MIC Sa” value with S. aureus ATCC 13709 was determined as 1 µg/mL (≈ 1.97 µM). Further, the “MIC Ec” value in the assay on E. coli ATCC 25922 came out at 16 µg/mL (≈ 31.5 µM).

On to `CNc1cc(F)cc2c1[nH]c1nc(Oc3cncc(F)c3)nc(N3CC4C(N)C4C3)c12` (centres unmarked) [4.055], for which the MIC in the assay with S. aureus ATCC 13709 and against E. coli ATCC 25922 was ≤ 0.5 µg/mL each time.

Take `CNc1cc(F)cc2c1[nH]c1nc(Oc3cncnc3)ncc12` [4.031]: the MIC against S. aureus ATCC 13709 is 2 µg/mL (≈ 6.45 µM); in the assay on E. coli ATCC 25922, > 16 µg/mL.

For `CNc1cccc2c1[nH]c1nc(Oc3ccc4nccnc4c3)nc(N3CC4C(N)C4C3)c12` (centres unmarked) [3.31], the figures for the MIC against S. aureus ATCC 13709 and against E. coli ATCC 25922 were 2 µg/mL (≈ 4.56 µM) and 8 µg/mL (≈ 18.2 µM), respectively.

Consider `CNc1cccc2c1[nH]c1nc(Oc3cncnc3)nc(N3C[C@@H]4CNC[C@H]4C3)c12` [3.61], for which the figures for the MIC in the assay with S. aureus ATCC 13709 and with E. coli ATCC 25922 were 4 µg/mL (≈ 9.94 µM) and 16 µg/mL (≈ 39.8 µM), respectively.

`CNc1cc(F)cc2c1[nH]c1nc(Oc3cnc(CC(=O)N(C)OC)nc3)nc(N3C[C@H](N)C4(CC4)C3)c12` [4.370]: the MIC with S. aureus ATCC 13709 is ≤ 0.5 µg/mL; against E. coli ATCC 25922 it was 1 µg/mL (≈ 1.92 µM).

As to `CNc1cc(F)cc2c1[nH]c1nc(Oc3cncc(C#N)c3)nc(N3CC4(CCC4N)C3)c12` (centres unmarked) [4.054], in the assay with S. aureus ATCC 13709, the “MIC Sa” value was ≤0.5 µg/mL. Also, the “MIC Ec” value against E. coli ATCC 25922 was ≤0.5 µg/mL.

With `CNc1cc(F)cc2c1[nH]c1nc(Oc3cncnc3)nc(N3CC4C[C@@H](N)C4C3)c12` (some centres unmarked) [4.028], the MIC against S. aureus ATCC 13709 and with E. coli ATCC 25922 was ≤ 0.5 µg/mL throughout.

`CNc1cc(F)cc2c1[nH]c1nc(Oc3cnc(CO)nc3)nc(N3CC(N)C4(CC4)C3)c12` (centres unmarked) [4.387]: in the assay on S. aureus ATCC 13709, the “MIC Sa” value was ≤0.5 µg/mL. In the assay with E. coli ATCC 25922, the “MIC Ec” value is ≤0.5 µg/mL.

Turning to `CNc1cccc2c1[nH]c1nc(Oc3cncc(F)c3)nc(N3CC4CNC4C3)c12` (centres unmarked) [3.7], the MIC was found to be 1 µg/mL (≈ 2.47 µM) in the assay on S. aureus ATCC 13709 and 4 µg/mL (≈ 9.87 µM) in the assay on E. coli ATCC 25922.

Regarding `CNNc1cc(F)cc2c1[nH]c1nc(Oc3cnc(C)nc3)nc(N3CC4C(N)C4C3)c12` (centres unmarked) [2.1], the “MIC Sa” value against S. aureus ATCC 13709 was ≤0.5 µg/mL. In addition, in the assay on E. coli ATCC 25922, the “MIC Ec” value is >16 µg/mL.

Consider `CNc1cccc2c1[nH]c1nc(Sc3cnc4cccnc4c3)nc(N3C[C@@H](N)C[C@H]3C)c12` [1.60], for which the values for the MIC against S. aureus ATCC 13709 and in the assay with E. coli ATCC 25922 were 0.5 µg/mL (≈ 1.1 µM) and 2 µg/mL (≈ 4.38 µM), respectively.

Consider `CNc1cccc2c1[nH]c1nc(Oc3cncnc3)nc(N3CCC4(CNC4)C3)c12` [3.65], for which the MIC worked out at 8 µg/mL (≈ 19.9 µM) in the assay with S. aureus ATCC 13709 and 64 µg/mL (≈ 159 µM) in the assay on E. coli ATCC 25922.

Take `CNc1cc(F)cc2c1[nH]c1nc(Oc3cnc(C)nc3)nc(N3CC(NC(=O)C(C)N)C4(CC4)C3)c12` (centres unmarked) [4.142]: the “MIC Sa” value against S. aureus ATCC 13709 is ≤0.5 µg/mL. Also, in the assay on E. coli ATCC 25922, the “MIC Ec” value worked out at 1 µg/mL (≈ 1.98 µM).

For `CNc1cc(F)cc2c1[nH]c1nc(Oc3cnc(C)nc3)nc(N3CC4CCC(N)C4C3)c12` (centres unmarked) [4.102], in the assay with S. aureus ATCC 13709, the “MIC Sa” value was ≤0.5 µg/mL. The “MIC Ec” value against E. coli ATCC 25922 was found to be 2 µg/mL (≈ 4.46 µM).

Turning to `CNc1ncnc2c1[nH]c1nc(Oc3cnc(C)nc3)nc(N3CCC(CN)C3)c12` (centres unmarked) [7.12], the MIC in the assay with S. aureus ATCC 13709 and against E. coli ATCC 25922 was > 64 µg/mL throughout.

With `CNc1cc(F)cc2c1[nH]c1nc(Oc3cnc4c(ccn4C)c3)nc(N3CC4CC(N)C4C3)c12` (centres unmarked) [4.328], the MIC in the assay on S. aureus ATCC 13709 was ≤ 0.5 µg/mL; in the assay with E. coli ATCC 25922, 1 µg/mL (≈ 2.12 µM).

On to `CNc1cc(F)cc2c1[nH]c1nc(Oc3cnc4ccc[n+]([O-])c4c3)nc(N3CC4(CCC4N)C3)c12` (centres unmarked) [4.342], for which, in the assay with S. aureus ATCC 13709, the “MIC Sa” value was ≤0.5 µg/mL. In addition, the “MIC Ec” value in the assay with E. coli ATCC 25922 amounted to 4 µg/mL (≈ 8.22 µM).

As to `CNc1cc(F)cc2c1[nH]c1nc(Oc3cnc(C)nc3)nc(N3CC4[C@H](N)C[C@]4(C)C3)c12` (some centres unmarked) [4.146], the MIC with S. aureus ATCC 13709 and with E. coli ATCC 25922 was ≤ 0.5 µg/mL in each case.

For the compound `CNc1cccc2c1[nH]c1nc(Sc3cnc4cccnc4c3)nc(N3CCC4(CC4N)C3)c12` (centres unmarked) [1.25], the MIC with S. aureus ATCC 13709 is ≤ 0.5 µg/mL. Besides, in the assay with E. coli ATCC 25922, the “MIC Ec” value was 4 µg/mL (≈ 8.54 µM).

As for `CNc1cc(F)cc2c1[nH]c1nc(Oc3cncnc3)nc(N3C[C@H]4C[C@@H]3C[C@H]4N)c12` [4.034], the MIC in the assay with S. aureus ATCC 13709 and with E. coli ATCC 25922 was ≤ 0.5 µg/mL in each case.

As for `CNc1ccc(C)c2c1[nH]c1nc(Sc3cnc4ccc[n+]([O-])c4c3)nc(N3CC4C(N)C4C3)c12` (centres unmarked) [1.73], the MIC with S. aureus ATCC 13709 is ≤ 0.5 µg/mL; against E. coli ATCC 25922, 8 µg/mL (≈ 16.5 µM).

For `CNc1cc(F)cc2c1[nH]c1nc(Oc3cnc(C)nc3)nc(-c3cncc(F)c3)c12` [4.417], the results for the MIC in the assay on S. aureus ATCC 13709 and in the assay on E. coli ATCC 25922 were ≤ 0.5 µg/mL and 1 µg/mL (≈ 2.38 µM), respectively.

Turning to `COc1cccc2c1[nH]c1nc(Oc3cncnc3)nc(N3CC4C(N)C4C3)c12` (centres unmarked) [2.13], the “MIC Sa” value against S. aureus ATCC 13709 came to 2 µg/mL (≈ 5.14 µM). Moreover, in the assay with E. coli ATCC 25922, the “MIC Ec” value amounted to 64 µg/mL (≈ 164 µM).

As for `CNc1ncnc2c1[nH]c1nc(Oc3cncnc3)nc(Oc3cncnc3)c12` [7.10], the MIC in the assay on S. aureus ATCC 13709 and in the assay on E. coli ATCC 25922 was > 64 µg/mL in each case.

For `CNc1cc(F)cc2c1[nH]c1nc(Oc3cnc(SC)nc3)nc(N3CC4C(CN)C4C3)c12` (centres unmarked) [4.197], the “MIC Sa” value against S. aureus ATCC 13709 was ≤0.5 µg/mL. The “MIC Ec” value with E. coli ATCC 25922 was ≤0.5 µg/mL.

For `CNc1cc(F)cc2c1[nH]c1nc(Oc3cncc(-c4cn[nH]c4)c3)nc(N3CC4C(N)C4C3)c12` (centres unmarked) [4.206], the MIC with S. aureus ATCC 13709 was ≤ 0.5 µg/mL; in the assay with E. coli ATCC 25922, 4 µg/mL (≈ 8.48 µM).

With `CNc1cc(F)cc2c1[nH]c1nc(Oc3ccc4c(c3)C(=O)NC4)nc(N3CC4(CCC4N)C3)c12` (centres unmarked) [4.270], in the assay on S. aureus ATCC 13709, the “MIC Sa” value is ≤0.5 µg/mL. For the same compound, the “MIC Ec” value against E. coli ATCC 25922 is 2 µg/mL (≈ 4.22 µM).

Regarding `CNc1cccc2c1[nH]c1nc(Sc3cnc4ccc[n+]([O-])c4c3)nc(N3C[C@@H]4[C@@H](CN)[C@@H]4C3)c12` [1.18], the MIC against S. aureus ATCC 13709 is ≤ 0.5 µg/mL; against E. coli ATCC 25922, 2 µg/mL (≈ 4.13 µM).

The values above are taken from patent US10858360B2, “Tricyclic gyrase inhibitors” (priority 2011, dated 2020).
